Experimental data taken from patent US6737383B1, “Herbicidal oxadiazolidines” (priority 1999, dated 2004).

Key:
winter wheat [1] = assay: Test E winter wheat; format: in vivo, Triticum aestivum; conditions: Preemergence
pigweed = assay: Test B pre/postemergence pigweed; format: in vivo, Amaranthus retroflexus
Procedure, shortened: (§1)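 Herbicidal effect was estimated by eye on a ten-point control scale after plants spent twelve to sixteen days in a greenhouse following soil or foliar treatment. Foliar sprays targeted plants at one to four leaves; all doses were formulated in a non-phytotoxic solvent with surfactant.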

blackgrass = assay: Test E blackgrass; format: in vivo, Alopecurus myosuroides; conditions: Preemergence
common ragweed = assay: Test D common ragweed; format: in vivo, Ambrosia elatior; conditions: Preemergence, 0 to 100 scale
Procedure, shortened: (§2)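 Scoring used a 0–100 visual injury scale, with 0 meaning no effect and 100 complete control, assessed 14–21 days after application alongside untreated pots. Preemergence treatments went onto sandy loam surfaces of separately potted seeds within a day of sowing.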

itchgrass = assay: Test D itchgrass; format: in vivo, Rottboellia exaltata; conditions: Preemergence, 0 to 100 scale
Procedure, shortened: as §2

winter wheat [2] = assay: Test E winter wheat; format: in vivo, Triticum aestivum; conditions: Postemergence
Procedure, shortened: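 Greenhouse-grown plants are treated (postemergence: 1- to 4-leaf stage, sandy loam/potting mix 60:40), then evaluated visually versus untreated controls some 21 to 28 days later.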

winter barley = assay: Test E winter barley; format: in vivo, Hordeum vulgare; conditions: Preemergence
giant foxtail = assay: Test B pre/postemergence giant foxtail; format: in vivo, Setaria faberii
Procedure, shortened: as §1

morningglory = assay: Test B pre/postemergence morningglory; format: in vivo, Ipomoea hederacea
Procedure, shortened: as §1

Italian ryegrass = assay: Test E Italian ryegrass; format: in vivo, Lolium multiflorum; conditions: Preemergence
green foxtail = assay: Test E green foxtail; format: in vivo, Setaria viridis; conditions: Preemergence
wild oat = assay: Test E wild oat; format: in vivo, Avena fatua; conditions: Preemergence
[3] = Rate 125 g/ha, 0 to 100 scale (0 no effect, 100 complete control)
[4] = Rate 500 g/ha, 0 to 100 scale where 0 is no effect and 100 is complete control
[5] = Rate 1000 g/ha, 0 to 100 scale where 0 is no effect and 100 is complete control
[6] = Postemergence, Rate 62 g/ha, scale 0 to 10, 0 is no effect, 10 is complete control
[7] = Postemergence, Rate 250 g/ha, scale 0 to 10, 0 no effect, 10 complete control
[8] = Postemergence, Rate 1000 g/ha, scale 0 to 10 (0 no effect, 10 complete control)
[9] = Preemergence, Rate 31 g/ha, visual rating, scale 0 to 10 (0 no effect, 10 complete control)
[10] = Preemergence, Rate 62 g/ha, scale 0 to 10, 0 is no effect, 10 is complete control
[11] = Preemergence, Rate 125 g/ha, scale 0 to 10 (0 no effect, 10 complete control)
[12] = Preemergence, Rate 250 g/ha, scale of 0 to 10 where 0 is no effect and 10 is complete control
[13] = Rate 31 g/ha, Postemergence, scale 0 to 10
[14] = Rate 125 g/ha, Postemergence, scale 0 to 10, 0 no effect, 10 complete control
[15] = Rate 500 g/ha, Postemergence, 0 to 10 scale (0 no effect, 10 complete control)
[16] = Rate 1000 g/ha, Preemergence, scale 0 to 10 (0 no effect, 10 complete control)
[17] = Rate 16 g/ha, 0 no injury, 100 complete control
[18] = Rate 32 g/ha, 0 no injury, 100 complete control
[19] = Rate 64 g/ha, 0 no injury, 100 complete control
[20] = Rate 125 g/ha, 0 no injury, 100 complete control
[21] = Preemergence, Rate 500 g/ha, scale 0 (no effect) to 10 (complete control)

**Q.** Cc1ccccc1-n1c(=O)on(C(=O)N(c2ccc(F)cc2)C(C)C)c1=O [Compound 4] was tested. Which “Plant response rating, Wheat (winter)” value (winter wheat [1]; [3]) did it give?
**A.** 0

**Q.** What about the “Plant response rating, Wheat (winter)” value (winter wheat [1]; Rate 250 g/ha, 0 to 100 scale) of the same compound?
**A.** 0

**Q.** And the “Plant response rating, Wheat (winter)” value (winter wheat [1]; [4])?
**A.** 0

**Q.** And the “Plant response rating, Wheat (winter)” value (winter wheat [1]; [5])?
**A.** 0

**Q.** And the “Redroot pigweed plant response rating” value (pigweed; [6])?
**A.** 0

**Q.** And the “Redroot pigweed plant response rating” value (pigweed; [7])?
**A.** 5

**Q.** And the “Redroot pigweed plant response rating” value (pigweed; [8])?
**A.** 8

**Q.** What about the “Redroot pigweed plant response rating” value (pigweed; [9]) of the same compound?
**A.** 0

**Q.** And the “Plant response rating, Redroot pigweed” value (pigweed; [10])?
**A.** 2

**Q.** And the “Plant response rating, Redroot pigweed” value (pigweed; [11])?
**A.** 5

**Q.** What about the “Plant response rating, Redroot pigweed” value (pigweed; [12]) of the same compound?
**A.** 8

**Q.** And the “Redroot pigweed plant response rating” value (pigweed; [13])?
**A.** 0

**Q.** And the “Redroot pigweed plant response rating” value (pigweed; [14])?
**A.** 4

**Q.** What about the “Redroot pigweed plant response rating” value (pigweed; [15]) of the same compound?
**A.** 7

**Q.** What about the “Plant response rating, Redroot pigweed” value (pigweed; [16]) of the same compound?
**A.** 8

**Q.** And the “Plant response rating, Blackgrass” value (blackgrass; [3])?
**A.** 30

**Q.** And the “Plant response rating, Blackgrass” value (blackgrass; Rate 250 g/ha, 0 to 100 scale)?
**A.** 50

**Q.** And the “Plant response rating, Blackgrass” value (blackgrass; [4])?
**A.** 90

**Q.** And the “Plant response rating, Blackgrass” value (blackgrass; [5])?
**A.** 100

**Q.** What about the “Plant response rating, C. ragweed” value (common ragweed; [17]) of the same compound?
**A.** 0

**Q.** And the “Plant response rating, C. ragweed” value (common ragweed; [18])?
**A.** 0

**Q.** What about the “Plant response rating, C. ragweed” value (common ragweed; [19]) of the same compound?
**A.** 0

**Q.** What about the “Plant response rating, C. ragweed” value (common ragweed; [20]) of the same compound?
**A.** 0

**Q.** And the “Plant response rating, C. ragweed” value (common ragweed; Rate 250 g/ha)?
**A.** 0

**Q.** And the “Plant response rating, C. ragweed” value (common ragweed; Rate 500 g/ha)?
**A.** 0

**Q.** What about the “Plant response rating, Itchgrass” value (itchgrass; [17]) of the same compound?
**A.** 0

**Q.** And the “Plant response rating, Itchgrass” value (itchgrass; [18])?
**A.** 0

**Q.** And the “Plant response rating, Itchgrass” value (itchgrass; [19])?
**A.** 75

**Q.** And the “Plant response rating, Itchgrass” value (itchgrass; [20])?
**A.** 0

**Q.** And the “Plant response rating, Itchgrass” value (itchgrass; Rate 250 g/ha)?
**A.** 80

**Q.** And the “Plant response rating, Itchgrass” value (itchgrass; Rate 500 g/ha)?
**A.** 80

**Q.** What about the “Plant response rating, Wheat (winter)” value (winter wheat [2]; Rate 125 g/ha, 0 to 100 scale) of the same compound?
**A.** 0

**Q.** And the “Plant response rating, Wheat (winter)” value (winter wheat [2]; Rate 250 g/ha, 0 to 100 scale (0 no effect, 100 complete control))?
**A.** 0

**Q.** What about the “Plant response rating, Wheat (winter)” value (winter wheat [2]; Rate 1000 g/ha, 0 to 100 scale, 0 is no effect and 100 is complete control) of the same compound?
**A.** 0

**Q.** What about the “Plant response rating, Wheat (winter)” value (winter wheat [2]; Rate 500 g/ha, 0 to 100 scale, 0 no effect, 100 complete control) of the same compound?
**A.** 0

**Q.** What about the “Plant response rating, Barley (winter)” value (winter barley; [3]) of the same compound?
**A.** 10

**Q.** And the “Plant response rating, Barley (winter)” value (winter barley; Rate 250 g/ha, 0 to 100 scale)?
**A.** 10

**Q.** What about the “Plant response rating, Barley (winter)” value (winter barley; [4]) of the same compound?
**A.** 10

**Q.** What about the “Plant response rating, Barley (winter)” value (winter barley; [5]) of the same compound?
**A.** 10

**Q.** And the “Giant foxtail plant response rating” value (giant foxtail; [6])?
**A.** 0

**Q.** What about the “Giant foxtail plant response rating” value (giant foxtail; [7]) of the same compound?
**A.** 3

**Q.** And the “Giant foxtail plant response rating” value (giant foxtail; [8])?
**A.** 6

**Q.** What about the “Giant foxtail plant response rating” value (giant foxtail; [9]) of the same compound?
**A.** 8

**Q.** What about the “Plant response rating, Giant foxtail” value (giant foxtail; [10]) of the same compound?
**A.** 9

**Q.** And the “Plant response rating, Giant foxtail” value (giant foxtail; [11])?
**A.** 9

**Q.** And the “Plant response rating, Giant foxtail” value (giant foxtail; [12])?
**A.** 10

**Q.** What about the “Giant foxtail plant response rating” value (giant foxtail; [21]) of the same compound?
**A.** 10

**Q.** What about the “Giant foxtail plant response rating” value (giant foxtail; [13]) of the same compound?
**A.** 0

**Q.** What about the “Giant foxtail plant response rating” value (giant foxtail; [14]) of the same compound?
**A.** 5

**Q.** What about the “Giant foxtail plant response rating” value (giant foxtail; [15]) of the same compound?
**A.** 4

**Q.** And the “Plant response rating, Giant foxtail” value (giant foxtail; [16])?
**A.** 10

**Q.** And the “Morningglory plant response rating” value (morningglory; [6])?
**A.** 0

**Q.** What about the “Morningglory plant response rating” value (morningglory; [7]) of the same compound?
**A.** 3

**Q.** And the “Morningglory plant response rating” value (morningglory; [8])?
**A.** 3

**Q.** And the “Morningglory plant response rating” value (morningglory; [9])?
**A.** 0

**Q.** What about the “Plant response rating, Morningglory” value (morningglory; [10]) of the same compound?
**A.** 0

**Q.** What about the “Plant response rating, Morningglory” value (morningglory; [11]) of the same compound?
**A.** 0

**Q.** What about the “Plant response rating, Morningglory” value (morningglory; [12]) of the same compound?
**A.** 0

**Q.** And the “Morningglory plant response rating” value (morningglory; [21])?
**A.** 0

**Q.** What about the “Morningglory plant response rating” value (morningglory; [13]) of the same compound?
**A.** 0

**Q.** What about the “Morningglory plant response rating” value (morningglory; [14]) of the same compound?
**A.** 2

**Q.** And the “Morningglory plant response rating” value (morningglory; [15])?
**A.** 3

**Q.** And the “Plant response rating, Morningglory” value (morningglory; [16])?
**A.** 0

**Q.** And the “Plant response rating, I. Ryegrass” value (Italian ryegrass; [3])?
**A.** 20

**Q.** And the “Plant response rating, I. Ryegrass” value (Italian ryegrass; Rate 250 g/ha, 0 to 100 scale)?
**A.** 20

**Q.** And the “Plant response rating, I. Ryegrass” value (Italian ryegrass; [4])?
**A.** 50

**Q.** And the “Plant response rating, I. Ryegrass” value (Italian ryegrass; [5])?
**A.** 85

**Q.** And the “Plant response rating, Green foxtail” value (green foxtail; [3])?
**A.** 50

**Q.** And the “Plant response rating, Green foxtail” value (green foxtail; Rate 250 g/ha, 0 to 100 scale)?
**A.** 55

**Q.** And the “Plant response rating, Green foxtail” value (green foxtail; [4])?
**A.** 100

**Q.** What about the “Plant response rating, Green foxtail” value (green foxtail; [5]) of the same compound?
**A.** 100

**Q.** And the “Plant response rating, Wild oat” value (wild oat; [3])?
**A.** 10

**Q.** What about the “Plant response rating, Wild oat” value (wild oat; [4]) of the same compound?
**A.** 25

**Q.** What about the “Plant response rating, Wild oat” value (wild oat; [5]) of the same compound?
**A.** 50
